Source: ChEMBL document CHEMBL4507268 (2021)

Key:
Conditions in all cases: Compound concentration 1000.0 nM
[1] = target: T1, Aurora kinase C (Homo sapiens) (UniProt Q9UQB9)
T1 sequence (whole entry): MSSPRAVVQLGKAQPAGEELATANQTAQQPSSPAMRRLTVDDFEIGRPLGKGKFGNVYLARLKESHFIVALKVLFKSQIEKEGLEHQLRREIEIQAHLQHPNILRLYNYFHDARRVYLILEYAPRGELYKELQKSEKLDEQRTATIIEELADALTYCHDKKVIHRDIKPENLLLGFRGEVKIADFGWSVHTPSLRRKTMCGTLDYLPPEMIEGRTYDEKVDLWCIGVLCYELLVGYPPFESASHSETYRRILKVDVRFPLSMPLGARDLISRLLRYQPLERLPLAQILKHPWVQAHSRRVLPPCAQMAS

[2] = target: RAC-gamma serine/threonine-protein kinase (Homo sapiens) (UniProt Q9Y243)
Sequence of RAC-gamma serine/threonine-protein kinase (Homo sapiens) (Q9Y243 whole entry): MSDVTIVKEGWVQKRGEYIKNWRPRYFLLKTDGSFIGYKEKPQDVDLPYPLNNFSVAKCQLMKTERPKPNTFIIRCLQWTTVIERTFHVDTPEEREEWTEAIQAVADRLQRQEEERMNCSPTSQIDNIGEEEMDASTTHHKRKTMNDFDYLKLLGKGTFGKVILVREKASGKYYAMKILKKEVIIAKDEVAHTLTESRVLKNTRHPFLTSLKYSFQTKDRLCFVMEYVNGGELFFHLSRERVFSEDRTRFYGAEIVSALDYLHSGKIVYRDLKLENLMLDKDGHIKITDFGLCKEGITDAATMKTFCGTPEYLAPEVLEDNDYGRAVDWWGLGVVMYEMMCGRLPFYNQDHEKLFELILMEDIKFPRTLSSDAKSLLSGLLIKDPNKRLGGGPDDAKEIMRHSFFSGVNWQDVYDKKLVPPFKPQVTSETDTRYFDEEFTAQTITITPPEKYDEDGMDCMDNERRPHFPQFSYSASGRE

[3] = target: Calcium/calmodulin-dependent protein kinase type II subunit delta (Homo sapiens) (UniProt Q13557)
Sequence of Calcium/calmodulin-dependent protein kinase type II subunit delta (Homo sapiens) (Q13557 whole entry): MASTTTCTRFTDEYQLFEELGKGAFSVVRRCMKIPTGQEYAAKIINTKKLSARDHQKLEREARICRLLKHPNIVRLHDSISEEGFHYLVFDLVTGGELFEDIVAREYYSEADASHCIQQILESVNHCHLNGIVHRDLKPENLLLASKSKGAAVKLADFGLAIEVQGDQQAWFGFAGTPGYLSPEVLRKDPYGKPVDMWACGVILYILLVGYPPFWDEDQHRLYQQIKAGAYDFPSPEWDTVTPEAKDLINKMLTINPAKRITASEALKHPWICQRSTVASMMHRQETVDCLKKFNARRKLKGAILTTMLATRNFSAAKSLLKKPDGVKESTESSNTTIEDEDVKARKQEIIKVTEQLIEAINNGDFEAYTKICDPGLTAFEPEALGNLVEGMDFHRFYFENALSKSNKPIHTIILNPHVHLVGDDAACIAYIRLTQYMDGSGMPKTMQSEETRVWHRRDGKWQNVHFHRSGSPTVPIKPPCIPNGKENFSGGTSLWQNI

[4] = system: Hepatocyte growth factor receptor (Homo sapiens), P08581 [M1250T]
[5] = target: Dual specificity tyrosine-phosphorylation-regulated kinase 1B (Homo sapiens) (UniProt Q9Y463)
Sequence of Dual specificity tyrosine-phosphorylation-regulated kinase 1B (Homo sapiens) (Q9Y463 whole entry, looked up): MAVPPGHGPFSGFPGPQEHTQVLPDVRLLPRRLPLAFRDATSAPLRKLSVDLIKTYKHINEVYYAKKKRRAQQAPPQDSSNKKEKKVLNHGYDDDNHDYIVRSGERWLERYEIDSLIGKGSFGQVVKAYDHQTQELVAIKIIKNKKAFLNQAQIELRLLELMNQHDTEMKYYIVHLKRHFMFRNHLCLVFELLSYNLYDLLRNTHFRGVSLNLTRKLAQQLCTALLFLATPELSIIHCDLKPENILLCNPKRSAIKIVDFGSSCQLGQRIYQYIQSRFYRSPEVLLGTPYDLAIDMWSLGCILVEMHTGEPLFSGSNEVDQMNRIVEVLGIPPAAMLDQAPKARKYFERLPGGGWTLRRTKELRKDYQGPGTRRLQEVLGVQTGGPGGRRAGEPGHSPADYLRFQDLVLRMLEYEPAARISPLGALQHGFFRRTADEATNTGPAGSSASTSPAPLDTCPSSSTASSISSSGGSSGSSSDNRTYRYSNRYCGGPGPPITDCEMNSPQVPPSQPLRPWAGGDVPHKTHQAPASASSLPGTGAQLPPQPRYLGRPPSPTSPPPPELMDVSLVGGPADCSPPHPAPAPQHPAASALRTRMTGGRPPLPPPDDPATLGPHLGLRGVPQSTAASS

[6] = target: Bone morphogenetic protein receptor type-1A (Homo sapiens) (UniProt P36894)
Sequence of Bone morphogenetic protein receptor type-1A (Homo sapiens) (P36894 whole entry): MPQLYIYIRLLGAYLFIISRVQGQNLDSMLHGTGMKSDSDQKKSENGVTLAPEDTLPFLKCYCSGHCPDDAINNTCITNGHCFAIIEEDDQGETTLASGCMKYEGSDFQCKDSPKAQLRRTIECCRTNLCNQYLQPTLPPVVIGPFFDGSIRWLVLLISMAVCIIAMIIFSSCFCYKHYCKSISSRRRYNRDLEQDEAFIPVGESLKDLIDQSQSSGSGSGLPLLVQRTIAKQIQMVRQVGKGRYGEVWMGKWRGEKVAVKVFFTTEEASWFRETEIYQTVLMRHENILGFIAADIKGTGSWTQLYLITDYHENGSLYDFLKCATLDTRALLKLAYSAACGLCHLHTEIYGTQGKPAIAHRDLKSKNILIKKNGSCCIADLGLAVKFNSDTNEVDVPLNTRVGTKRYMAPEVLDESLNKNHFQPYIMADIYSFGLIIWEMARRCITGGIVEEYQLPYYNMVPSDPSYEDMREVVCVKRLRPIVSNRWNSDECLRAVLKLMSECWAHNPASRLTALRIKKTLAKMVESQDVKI

[7] = target: Serine/threonine-protein kinase SIK2 (Homo sapiens) (UniProt Q9H0K1)
Sequence of Serine/threonine-protein kinase SIK2 (Homo sapiens) (Q9H0K1 whole entry, looked up): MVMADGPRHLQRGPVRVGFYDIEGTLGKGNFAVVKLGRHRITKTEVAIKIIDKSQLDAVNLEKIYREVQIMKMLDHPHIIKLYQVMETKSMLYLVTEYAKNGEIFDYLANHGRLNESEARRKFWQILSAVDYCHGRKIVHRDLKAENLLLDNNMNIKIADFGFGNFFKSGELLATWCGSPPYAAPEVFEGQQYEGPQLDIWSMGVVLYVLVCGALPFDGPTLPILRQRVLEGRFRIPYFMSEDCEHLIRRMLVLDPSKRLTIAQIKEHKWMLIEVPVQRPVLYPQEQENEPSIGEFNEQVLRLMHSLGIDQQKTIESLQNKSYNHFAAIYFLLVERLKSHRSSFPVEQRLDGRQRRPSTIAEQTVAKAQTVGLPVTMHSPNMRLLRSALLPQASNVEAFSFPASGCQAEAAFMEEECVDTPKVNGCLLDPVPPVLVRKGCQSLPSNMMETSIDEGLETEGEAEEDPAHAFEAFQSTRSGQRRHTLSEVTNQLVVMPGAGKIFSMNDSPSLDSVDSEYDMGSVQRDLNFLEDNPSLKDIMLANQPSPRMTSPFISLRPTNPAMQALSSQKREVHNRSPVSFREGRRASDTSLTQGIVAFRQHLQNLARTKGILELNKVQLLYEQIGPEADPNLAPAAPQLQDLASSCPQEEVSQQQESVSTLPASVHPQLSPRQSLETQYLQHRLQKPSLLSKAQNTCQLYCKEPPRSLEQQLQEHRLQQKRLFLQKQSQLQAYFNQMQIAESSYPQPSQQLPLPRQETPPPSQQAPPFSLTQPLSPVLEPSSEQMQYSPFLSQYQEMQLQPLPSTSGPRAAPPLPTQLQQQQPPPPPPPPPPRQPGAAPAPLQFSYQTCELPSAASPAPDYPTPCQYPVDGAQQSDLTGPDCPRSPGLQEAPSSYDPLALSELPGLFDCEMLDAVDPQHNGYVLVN

[8] = target: Tyrosine-protein kinase ABL2 (Homo sapiens) (UniProt P42684)
[9] = target: T2, Myosin light chain kinase (Homo sapiens) (UniProt Q32MK0)
T2 sequence (whole entry): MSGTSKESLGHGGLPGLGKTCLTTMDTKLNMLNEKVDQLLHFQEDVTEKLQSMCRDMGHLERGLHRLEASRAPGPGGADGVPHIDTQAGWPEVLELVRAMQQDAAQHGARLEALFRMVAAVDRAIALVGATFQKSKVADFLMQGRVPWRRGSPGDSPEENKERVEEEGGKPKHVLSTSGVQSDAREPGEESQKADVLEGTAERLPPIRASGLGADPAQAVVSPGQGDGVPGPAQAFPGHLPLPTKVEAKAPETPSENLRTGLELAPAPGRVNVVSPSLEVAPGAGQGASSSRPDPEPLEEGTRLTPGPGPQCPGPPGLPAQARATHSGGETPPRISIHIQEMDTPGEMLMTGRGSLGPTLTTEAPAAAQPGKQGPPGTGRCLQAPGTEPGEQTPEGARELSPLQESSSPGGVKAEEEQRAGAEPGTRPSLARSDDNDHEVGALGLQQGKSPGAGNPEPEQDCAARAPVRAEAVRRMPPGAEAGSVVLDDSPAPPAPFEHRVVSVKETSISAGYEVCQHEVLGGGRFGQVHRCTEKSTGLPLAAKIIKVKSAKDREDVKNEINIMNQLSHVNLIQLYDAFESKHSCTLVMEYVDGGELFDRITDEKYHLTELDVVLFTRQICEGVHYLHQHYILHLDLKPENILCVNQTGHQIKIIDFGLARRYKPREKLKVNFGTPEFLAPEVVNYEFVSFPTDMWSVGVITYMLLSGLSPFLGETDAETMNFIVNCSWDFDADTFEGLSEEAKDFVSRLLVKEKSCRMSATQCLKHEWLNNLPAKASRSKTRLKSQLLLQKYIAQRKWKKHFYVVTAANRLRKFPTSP

[10] = target: Calcium-dependent protein kinase 1 (Plasmodium falciparum) (UniProt P62344)
Sequence of Calcium-dependent protein kinase 1 (Plasmodium falciparum) (P62344 2-524 limits assumed): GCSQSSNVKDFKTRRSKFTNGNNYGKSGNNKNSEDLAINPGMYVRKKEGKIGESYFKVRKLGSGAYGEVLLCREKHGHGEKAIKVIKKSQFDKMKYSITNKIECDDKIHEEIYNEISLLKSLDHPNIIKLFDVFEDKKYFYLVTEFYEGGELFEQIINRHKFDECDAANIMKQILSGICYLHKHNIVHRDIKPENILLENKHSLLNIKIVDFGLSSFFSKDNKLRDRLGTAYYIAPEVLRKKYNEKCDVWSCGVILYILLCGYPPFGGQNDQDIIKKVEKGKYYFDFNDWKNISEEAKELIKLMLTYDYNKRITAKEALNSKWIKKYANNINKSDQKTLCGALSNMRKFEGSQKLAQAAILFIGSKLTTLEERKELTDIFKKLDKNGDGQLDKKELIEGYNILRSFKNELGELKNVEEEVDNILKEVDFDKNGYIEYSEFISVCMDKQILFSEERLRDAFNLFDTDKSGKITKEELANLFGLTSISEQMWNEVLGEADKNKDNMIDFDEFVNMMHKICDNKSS

[11] = target: Cyclin-dependent kinase-like 1 (Homo sapiens) (UniProt Q00532)
Sequence of Cyclin-dependent kinase-like 1 (Homo sapiens) (Q00532 whole entry): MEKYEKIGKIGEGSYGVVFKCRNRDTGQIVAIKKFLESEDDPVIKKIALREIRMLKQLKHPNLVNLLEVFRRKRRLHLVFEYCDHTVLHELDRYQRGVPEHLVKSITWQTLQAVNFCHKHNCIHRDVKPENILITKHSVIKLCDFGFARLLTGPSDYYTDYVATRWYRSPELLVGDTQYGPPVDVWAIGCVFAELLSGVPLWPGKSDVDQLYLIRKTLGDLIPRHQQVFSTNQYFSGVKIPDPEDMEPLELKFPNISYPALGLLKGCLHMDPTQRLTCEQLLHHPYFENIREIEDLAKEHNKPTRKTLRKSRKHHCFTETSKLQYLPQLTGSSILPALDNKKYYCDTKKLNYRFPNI

[12] = system: Tyrosine-protein kinase ABL1 (Homo sapiens), P00519 [H396P]
[13] = target: T3, Serine/threonine-protein kinase PLK4 (Homo sapiens) (UniProt O00444)
T3 sequence (whole entry): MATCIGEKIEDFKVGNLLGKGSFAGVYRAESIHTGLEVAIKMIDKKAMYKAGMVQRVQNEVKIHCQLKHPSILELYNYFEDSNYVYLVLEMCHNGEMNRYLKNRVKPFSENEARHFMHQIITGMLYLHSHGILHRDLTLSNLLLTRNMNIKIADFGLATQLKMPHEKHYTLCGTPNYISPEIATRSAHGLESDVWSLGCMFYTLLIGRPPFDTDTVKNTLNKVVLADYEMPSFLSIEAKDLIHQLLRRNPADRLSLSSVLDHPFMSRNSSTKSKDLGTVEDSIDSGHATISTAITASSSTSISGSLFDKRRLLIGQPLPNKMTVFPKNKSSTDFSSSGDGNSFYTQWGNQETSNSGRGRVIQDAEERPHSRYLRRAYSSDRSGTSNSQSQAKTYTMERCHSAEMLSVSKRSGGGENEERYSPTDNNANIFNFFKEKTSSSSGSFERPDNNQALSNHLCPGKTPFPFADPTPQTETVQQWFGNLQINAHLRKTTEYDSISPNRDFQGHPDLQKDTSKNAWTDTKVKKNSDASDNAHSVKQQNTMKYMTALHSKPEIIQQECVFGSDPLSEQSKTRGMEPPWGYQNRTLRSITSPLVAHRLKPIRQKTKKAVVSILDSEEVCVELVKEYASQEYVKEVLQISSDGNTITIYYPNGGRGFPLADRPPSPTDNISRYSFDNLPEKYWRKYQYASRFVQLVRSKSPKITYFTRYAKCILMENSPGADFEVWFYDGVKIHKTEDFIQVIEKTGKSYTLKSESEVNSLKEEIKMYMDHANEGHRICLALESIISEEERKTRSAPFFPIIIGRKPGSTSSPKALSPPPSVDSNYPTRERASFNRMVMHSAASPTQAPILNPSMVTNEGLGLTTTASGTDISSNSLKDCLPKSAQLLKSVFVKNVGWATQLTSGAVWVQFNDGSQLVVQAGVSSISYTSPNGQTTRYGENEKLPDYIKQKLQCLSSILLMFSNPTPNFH

[14] = system: Tyrosine-protein kinase ABL1 (Homo sapiens), P00519 [F317I]
[15] = system: Receptor-type tyrosine-protein kinase FLT3 (Homo sapiens), P36888 [N841I]

Measured: residual activity

Cc1nc(C2CCN(C(=O)c3ccc(OC(F)(F)F)cc3N)CC2)c2ncc(N3CCN(C)CC3)cc2n1 [BAY-693]
inactive: [1] 100% | [2] 95% | [3] 100% | [4] 97% | [5] 61% | [6] 80% | [7] 100% | [8] 93% | [9] 100% | [10] 100% | [11] 89% | [12] 78% | [13] 77% | [14] 76% | [15] 100%

CN1CCN(c2cnc3c(C4CCN(C(=O)c5ccc(OC(F)(F)F)cc5N)CC4)ncnc3c2)CC1 [BAY-885]
inactive: [1] 67% | [2] 93% | [3] 100% | [4] 100% | [5] 54% | [6] 79% | [7] 100% | [8] 100% | [9] 82% | [10] 100% | [11] 94% | [12] 76% | [13] 83% | [14] 99% | [15] 100%
